Numbered stars: 1 amine (or outer) side, 2 acyl side, 3 side chain; on linkers, the order of the positions; unused ones are H or OH. Bridge positions count the residues as written; N and C are the ends. Square brackets hold non-standard residues; d marks the D form. Side chains are listed from the residue outwards. Peptide text beside a SMILES is read from it. * marks the point of attachment. C20 diacid = O=C(O)CCCCCCCCCCCCCCCCCCC(=O)*; C18 diacid = O=C(O)CCCCCCCCCCCCCCCCC(=O)*; γGlu = O=C(O)[C@H](CCC(=O)[*:2])N[*:1]; Hyp = O=C(O)[C@@H]1C[C@@H](O)CN1; AEEA = NCCOCCOCC(=O)O
Experiments:
[1] = biological target: T1, human amylin receptor (Homo sapiens, UniProt O60896+P30988); assay: Luciferase assay of amylin derivatives in amylin receptor/CRE-luc CHO cell line; format: cell-based; conditions: CHO-K1/Ga15/AMY3 CRE-luc cells, 24 hours incubation, F12 medium containing 10% FBS; read-out: EC50
T1 construct: host or cells: CHO-K1/Ga15/AMY3 cells, further stably transfected with a CRE-luciferase plasmid
T1 sequence (P30988 25-474): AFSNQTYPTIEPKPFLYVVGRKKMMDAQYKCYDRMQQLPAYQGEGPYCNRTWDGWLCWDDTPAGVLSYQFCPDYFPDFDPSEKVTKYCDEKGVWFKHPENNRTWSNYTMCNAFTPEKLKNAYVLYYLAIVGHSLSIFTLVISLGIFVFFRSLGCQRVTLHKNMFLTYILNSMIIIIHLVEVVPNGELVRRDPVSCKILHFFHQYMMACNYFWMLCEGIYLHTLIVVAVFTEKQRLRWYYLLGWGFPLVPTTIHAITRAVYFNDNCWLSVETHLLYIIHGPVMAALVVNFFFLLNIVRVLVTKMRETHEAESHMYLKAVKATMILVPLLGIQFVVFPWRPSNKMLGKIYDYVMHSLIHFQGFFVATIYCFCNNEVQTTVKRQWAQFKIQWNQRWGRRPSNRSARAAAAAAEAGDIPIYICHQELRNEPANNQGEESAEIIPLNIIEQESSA
T1 sequence (O60896 24-148 partner): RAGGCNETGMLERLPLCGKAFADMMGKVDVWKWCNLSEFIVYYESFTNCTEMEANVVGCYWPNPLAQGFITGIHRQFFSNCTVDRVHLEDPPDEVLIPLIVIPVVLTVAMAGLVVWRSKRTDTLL
Protocol: The experiment was intended to detect the activity or efficacy of the amylin derivatives on a human amylin receptor in vitro by luciferase assay.
50 μL of growth medium (F12 medium containing 10% FBS) was added into each well of a white 96-well plate, and the stably transfected amylin/CRE-lue CHO cells were inoculated into the white 96-well plate at a density of about 20,000 cells/well for activity determination.

[2] = Freeze-thaw stability of derivatives (freeze-thaw yield by liquid chromatography); format: physicochemical; conditions: for Dissolution property: appearance after dissolution at 0.2 mg/ml in 20 mM phosphate buffer solution (PB) (pH 7.0); for Freeze storage property: appearance after overnight storage at −20° C. and thawing to room temperature, 0.2 mg/ml in 20 mM PB (pH 7.0); for Freeze storage yield: concentration of polypeptide after freezing and thawing / concentration before, by liquid chromatography, −20° C. overnight
Method in brief: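 Freeze-thaw yield is the ratio of peptide concentration after versus before one overnight −20° C freeze and room-temperature thaw, both quantified by RP-HPLC of supernatant after centrifugation. Samples were 0.2 mg/ml freeze-dried derivative in 20 mM PB, pH 7.0.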

| EC50 [1] [nM] | Dissolution property [2] | Freeze storage property [2] | Freeze storage yield [2] [%] | SMILES |
| --- | --- | --- | --- | --- |
| 0.034 | Clear | Clear | 98.84 | CC[C@H](C)[C@H](NC(=O)[C@@H]1CCCN1C(=O)CNC(=O)[C@H](Cc1ccccc1)NC(=O)[C@H](CC(N)=O)NC(=O)[C@H](CC(N)=O)NC(=O)[C@H](CO)NC(=O)[C@H](CO)NC(=O)[C@H](Cc1c[nH]cn1)NC(=O)[C@H](CCCNC(=N)N)NC(=O)[C@H](CC(C)C)NC(=O)[C@H](Cc1ccccc1)NC(=O)[C@H](CC(=O)O)NC(=O)[C@H](C)NC(=O)[C@H](CC(C)C)NC(=O)[C@H](CCCNC(=N)N)NC(=O)[C@H](CCC(N)=O)NC(=O)[C@@H](NC(=O)[C@H](C)NC(=O)[C@@H]1CSSC[C@H](NC(=O)[C@H](CCCCN)NC(=O)CC[C@H](NC(=O)CCCCCCCCCCCCCCCCCCC(=O)O)C(=O)O)C(=O)N[C@@H](CC(N)=O)C(=O)N[C@@H]([C@@H](C)O)C(=O)N[C@@H](C)C(=O)N[C@@H]([C@@H](C)O)C(=O)N1)[C@@H](C)O)C(=O)N[C@@H](CC(C)C)C(=O)N1CCC[C@H]1C(=O)N1CCC[C@H]1C(=O)N[C@H](C(=O)N[C@@H](CC(N)=O)C(=O)N[C@H](C(=O)NCC(=O)N[C@@H](CO)C(=O)N[C@@H](CC(N)=O)C(=O)N[C@H](C(=O)N1C[C@H](O)C[C@H]1C(N)=O)[C@@H](C)O)C(C)C)[C@@H](C)O [PD067] ({C20 diacid-γGlu}-KCNTATCATQRLADFLRHSSNNFGPILPPTNVGSNT[Hyp]-NH2; disulfide 2-7 (inferred)) |
| 0.032 | Clear | Clear | 102.65 | CC[C@H](C)[C@H](NC(=O)[C@@H]1CCCN1C(=O)CNC(=O)[C@H](CC(C)C)NC(=O)[C@H](CCCCNC(=O)COCCOCCNC(=O)COCCOCCNC(=O)CC[C@H](NC(=O)CCCCCCCCCCCCCCCCCCC(=O)O)C(=O)O)NC(=O)[C@H](CC(N)=O)NC(=O)[C@H](CO)NC(=O)[C@H](CO)NC(=O)[C@H](Cc1c[nH]cn1)NC(=O)[C@H](CCCNC(=N)N)NC(=O)[C@H](CC(C)C)NC(=O)[C@H](Cc1ccccc1)NC(=O)[C@H](CC(=O)O)NC(=O)[C@H](C)NC(=O)[C@H](CC(C)C)NC(=O)[C@H](CCCNC(=N)N)NC(=O)[C@H](CCC(N)=O)NC(=O)[C@@H](NC(=O)[C@H](C)NC(=O)[C@@H]1CSSC[C@H](NC(=O)[C@@H](N)CCCNC(=N)N)C(=O)N[C@@H](CC(N)=O)C(=O)N[C@@H]([C@@H](C)O)C(=O)N[C@@H](C)C(=O)N[C@@H]([C@@H](C)O)C(=O)N1)[C@@H](C)O)C(=O)N[C@@H](CC(C)C)C(=O)N1CCC[C@H]1C(=O)N1CCC[C@H]1C(=O)N[C@H](C(=O)N[C@@H](CC(N)=O)C(=O)N[C@H](C(=O)NCC(=O)N[C@@H](CO)C(=O)N[C@@H](CC(N)=O)C(=O)N[C@H](C(=O)N1C[C@H](O)C[C@H]1C(N)=O)[C@@H](C)O)C(C)C)[C@@H](C)O [PD087] (H-RCNTATCATQRLADFLRHSSNK([AEEA-AEEA-γGlu-C20 diacid])LGPILPPTNVGSNT[Hyp]-NH2; disulfide 2-7 (inferred); N-terminus assumed) |
| 0.013 | Clear | Clear | 120.04 | CC[C@H](C)[C@H](NC(=O)[C@@H]1CCCN1C(=O)CNC(=O)[C@H](CC(C)C)NC(=O)[C@H](CCCCNC(=O)CC[C@H](NC(=O)CCCCCCCCCCCCCCCCC(=O)O)C(=O)O)NC(=O)[C@H](CC(N)=O)NC(=O)[C@H](CO)NC(=O)[C@H](CO)NC(=O)[C@H](Cc1c[nH]cn1)NC(=O)[C@H](CCCNC(=N)N)NC(=O)[C@H](CC(C)C)NC(=O)[C@H](Cc1ccccc1)NC(=O)[C@H](CC(=O)O)NC(=O)[C@H](C)NC(=O)[C@H](CC(C)C)NC(=O)[C@H](CCCNC(=N)N)NC(=O)[C@H](CCC(N)=O)NC(=O)[C@@H](NC(=O)[C@H](C)NC(=O)[C@@H]1CSSC[C@H](NC(=O)[C@@H](N)CCCNC(=N)N)C(=O)N[C@@H](CC(N)=O)C(=O)N[C@@H]([C@@H](C)O)C(=O)N[C@@H](C)C(=O)N[C@@H]([C@@H](C)O)C(=O)N1)[C@@H](C)O)C(=O)N[C@@H](CC(C)C)C(=O)N1CCC[C@H]1C(=O)N1CCC[C@H]1C(=O)N[C@H](C(=O)N[C@@H](CC(N)=O)C(=O)N[C@H](C(=O)NCC(=O)N[C@@H](CO)C(=O)N[C@@H](CC(N)=O)C(=O)N[C@H](C(=O)N1C[C@H](O)C[C@H]1C(N)=O)[C@@H](C)O)C(C)C)[C@@H](C)O [PD088] (H-RCNTATCATQRLADFLRHSSNK([γGlu-C18 diacid])LGPILPPTNVGSNT[Hyp]-NH2; disulfide 2-7 (inferred); N-terminus assumed) |
| 0.019 | Clear | Clear | 99.86 | CC[C@H](C)[C@H](NC(=O)[C@@H]1CCCN1C(=O)CNC(=O)[C@H](CC(C)C)NC(=O)[C@H](CC(N)=O)NC(=O)[C@H](CCCCNC(=O)COCCOCCNC(=O)COCCOCCNC(=O)CC[C@H](NC(=O)CCCCCCCCCCCCCCCCC(=O)O)C(=O)O)NC(=O)[C@H](CO)NC(=O)[C@H](CO)NC(=O)[C@H](Cc1c[nH]cn1)NC(=O)[C@H](CCCNC(=N)N)NC(=O)[C@H](CC(C)C)NC(=O)[C@H](Cc1ccccc1)NC(=O)[C@H](CC(=O)O)NC(=O)[C@H](C)NC(=O)[C@H](CC(C)C)NC(=O)[C@H](CCCNC(=N)N)NC(=O)[C@H](CCC(N)=O)NC(=O)[C@@H](NC(=O)[C@H](C)NC(=O)[C@@H]1CSSC[C@H](NC(=O)[C@@H](N)CCCNC(=N)N)C(=O)N[C@@H](CC(N)=O)C(=O)N[C@@H]([C@@H](C)O)C(=O)N[C@@H](C)C(=O)N[C@@H]([C@@H](C)O)C(=O)N1)[C@@H](C)O)C(=O)N[C@@H](CC(C)C)C(=O)N1CCC[C@H]1C(=O)N1CCC[C@H]1C(=O)N[C@H](C(=O)N[C@@H](CC(N)=O)C(=O)N[C@H](C(=O)NCC(=O)N[C@@H](CO)C(=O)N[C@@H](CC(N)=O)C(=O)N[C@H](C(=O)N1C[C@H](O)C[C@H]1C(N)=O)[C@@H](C)O)C(C)C)[C@@H](C)O [PD093] (H-RCNTATCATQRLADFLRHSSK([AEEA-AEEA-γGlu-C18 diacid])NLGPILPPTNVGSNT[Hyp]-NH2; disulfide 2-7 (inferred); N-terminus assumed) |
| 0.034 | Clear | Clear | 102.94 | CC[C@H](C)[C@H](NC(=O)[C@@H]1CCCN1C(=O)CNC(=O)[C@H](CC(C)C)NC(=O)[C@H](CC(N)=O)NC(=O)[C@H](CC(N)=O)NC(=O)[C@H](CCCCNC(=O)CC[C@H](NC(=O)CCCCCCCCCCCCCCCCCCC(=O)O)C(=O)O)NC(=O)[C@H](CO)NC(=O)[C@H](Cc1c[nH]cn1)NC(=O)[C@H](CCCNC(=N)N)NC(=O)[C@H](CC(C)C)NC(=O)[C@H](Cc1ccccc1)NC(=O)[C@H](CC(=O)O)NC(=O)[C@H](C)NC(=O)[C@H](CC(C)C)NC(=O)[C@H](CCCNC(=N)N)NC(=O)[C@H](CCC(N)=O)NC(=O)[C@@H](NC(=O)[C@H](C)NC(=O)[C@@H]1CSSC[C@H](NC(=O)[C@@H](N)CCCNC(=N)N)C(=O)N[C@@H](CC(N)=O)C(=O)N[C@@H]([C@@H](C)O)C(=O)N[C@@H](C)C(=O)N[C@@H]([C@@H](C)O)C(=O)N1)[C@@H](C)O)C(=O)N[C@@H](CC(C)C)C(=O)N1CCC[C@H]1C(=O)N1CCC[C@H]1C(=O)N[C@H](C(=O)N[C@@H](CC(N)=O)C(=O)N[C@H](C(=O)NCC(=O)N[C@@H](CO)C(=O)N[C@@H](CC(N)=O)C(=O)N[C@H](C(=O)N1C[C@H](O)C[C@H]1C(N)=O)[C@@H](C)O)C(C)C)[C@@H](C)O [PD094] (H-RCNTATCATQRLADFLRHSK([γGlu-C20 diacid])NNLGPILPPTNVGSNT[Hyp]-NH2; disulfide 2-7 (inferred); N-terminus assumed) |

Reference: patent US20260166128A1, “HUMAN AMYLIN ANALOG, AND DERIVATIVE THEREOF AND USE THEREOF” (priority 2022, published 2026)
